Measured values as given in BindingDB's records for doi:10.1016/j.ejmech.2019.111601 (National Institute of Pharmaceutical Education and Research …, 2019).

Assays:
[1] = molecular target: Prostaglandin G/H synthase 2 (Homo sapiens) (UniProt P35354); experiment: Inhibition of recombinant human COX2 assessed as reduction in PGF2alpha incubated for 2 mins using arachidonic acid as substrate by ELISA
[2] = molecular target: Prostaglandin G/H synthase 1 (Ovis aries) (UniProt P05979); experiment: Inhibition of ovine COX1 assessed as reduction in PGF2alpha incubated for 2 mins using arachidonic acid as substrate by ELISA

Prostaglandin G/H synthase 2 (Homo sapiens), sequence (P35354 whole entry, looked up): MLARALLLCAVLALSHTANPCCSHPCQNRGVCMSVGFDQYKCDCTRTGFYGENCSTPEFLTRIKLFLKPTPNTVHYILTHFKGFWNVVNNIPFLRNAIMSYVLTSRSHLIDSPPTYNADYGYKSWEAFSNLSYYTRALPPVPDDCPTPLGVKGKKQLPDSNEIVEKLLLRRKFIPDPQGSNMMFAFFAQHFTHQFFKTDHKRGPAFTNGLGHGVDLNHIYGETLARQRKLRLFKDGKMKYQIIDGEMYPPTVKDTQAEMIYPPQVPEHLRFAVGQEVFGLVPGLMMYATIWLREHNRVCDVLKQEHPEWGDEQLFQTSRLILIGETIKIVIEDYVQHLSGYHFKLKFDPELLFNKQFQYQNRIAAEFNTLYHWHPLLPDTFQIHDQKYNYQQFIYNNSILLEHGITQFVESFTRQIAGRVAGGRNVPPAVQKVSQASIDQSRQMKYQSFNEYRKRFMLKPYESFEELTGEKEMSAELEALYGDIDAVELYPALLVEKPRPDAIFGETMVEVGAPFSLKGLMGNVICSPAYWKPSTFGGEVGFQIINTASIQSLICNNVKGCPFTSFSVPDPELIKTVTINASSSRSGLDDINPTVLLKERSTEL

SMILES	IC50 [1]	IC50 [2]
CC(=O)N(C1=CC(=O)CCC1)c1ccc(Cl)cc1	0.367 µM	39.9 µM
CC(C)(C)OC(=O)N(C1=CC(=O)CCC1)c1ccc(Cl)cc1	0.915 µM	17.8 µM
O=C1C=C(Nc2ccc(Cl)cc2)CCC1	0.513 µM	38 µM
